{
  "source": "patent US20240197712A1",
  "about": "“TGF-BETA INHIBITION FOR IMMUNODEFICIENCY VIRUS REACTIVATION FROM LATENCY, ENHANCEMENT OF IMMUNODEFICIENCY VIRUS-SPECIFIC RESPONSES AND IMMUNODEFICIENCY VIRUS CURE” (Northwestern University, priority 2022, published 2024)",
  "key": {"[1]": {"test_system": "PBMC from aviremic, ART-treated PLWH", "assay": "Modified quantitative viral outgrowth assay (qVOA) with LRA", "assay_type": "cell-based, human", "text": "Considering that TGF-β is present in FBS, used to supplement PBMC and T cell cultures, and that PBMC from people living with HIV-1 release TGF-β in culture supernatants (56-58), we hypothesized that blocking TGF-β while reversing HIV-1 latency ex vivo from PBMC of ART-treated, aviremic individuals may lead to higher frequency of HIV-1 reactivation than in untreated cultures. To test this hypothesis, we used a modified version of the classical quantitative viral outgrowth assay (qVOA) (59). We used whole PBMC to assess potential latency reactivation from any HIV-1-infected circulating cell and not only from resting CD4+ T cells (FIG. 6A). PBMC from two different sets of aviremic, ART-treated donors (Table 1) were activated with PMA (at 100 ng/ml or 10 ng/ml) and with Vorinostat (SAHA, at 1 μM) in presence of T20 and galunisertib (1 μM) or mock solution. […] Infectious unit per million cells (IUPM) were calculated based on the number of infected wells as determined by p24 ELISA (FIG. 6A). […]\nPBMC were thawed and cultured in RPMI 10% FBS at 3×10^6/ml. […] 50 μl of supernatant was collected after 7, 14 and 21 days of co-culture and monitored for p24 presence by p24 ELISA (PerkinElmer). IUPM were calculated based on the number of positive wells using the IUPM calculator provided by Dr. Siliciano (76). […]"}, "[2]": {"test_system": "SIVmac251 or SIVmac239", "assay": "Plasma viral load, SIV-infected ART-treated macaques, 1-2 weeks galunisertib", "assay_type": "in vivo, rhesus macaques", "procedure": "Rhesus macaques (n=7) were infected with SIVmac251 or SIVmac239 rectally or intravenously (FIG. 9) and ART (Tenofovir [PMPA], Emtricitabine [FTC] and Dolutegravir [DTG]) was initiated between week 12 and 17 post infection. Galunisertib treatment was initiated after 26 or 27 weeks on ART for 7 or 14 days. Galunisertib powder (MedChemExpress—MCE, NJ, USA) was dissolved in water and given orally in a treat twice daily at 5 mg/kg or 10 mg/kg (FIG. 9). Blood viral load was monitored biweekly before and during cART and every 3-4 days during 438 Galunisertib treatment. Colorectal biopsies and LN FNA were collected before and after galunisertib treatment.\nBlood was collected in EDTA tubes and plasma was separated by density gradient centrifugation and used for the determination of plasma VL by SIVgag qRT-PCR at NIRC or at Leidos (Quantitative Molecular Diagnostics Core, AIDS and Cancer Virus Program Frederick National Laboratory). Tissue VL from snap frozen colorectal biopsies and LN FNA were performed at Leidos (A14X004, A14X005 and A14X013) as described in (78) or, for the remaining macaques and from PBMC of all macaques they were performed as described in (77)."}},
  "data": [
    {"smiles": "Cc1cccc(-c2nn3c(c2-c2ccnc4ccc(C(N)=O)cc24)CCC3)n1", "note": "[galunisertib, Galunisertib]", "values": [
      {"measurement": "frequency of latency reactivation events (IUPM)", "setting": "[1]; galunisertib 1 μM vs mock, PMA 100 or 10 ng/ml or Vorinostat 1 μM", "result": "significantly higher frequency"},
      {"measurement": "vRNA in supernatant after PMA stimulation", "setting": "[1]; galunisertib-treated PBMC vs mock treated", "result": "higher levels of vRNA"},
      {"measurement": "macaques with increase in pVL over 100 copies/ml", "setting": "[2]; 5 or 10 mg/kg orally twice per day, 1 or 2 weeks", "result": "2 of the 7"},
      {"measurement": "increase in pVL in macaque not continuously suppressed before treatment", "setting": "[2]; single macaque (A14X)", "result": "> 2", "unit": "Log"}
    ]}
  ]
}
